In this assay the test system is MDA-MB-468 breast. Kind of assay: growth of human tumour cells (NCI), 48 h.

“And” between values parts separate entries of the source, which are not always exact repeats. Equal values may be shown once.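 Protocol summary: plate cells (96-well), add compound at 5 concentrations, incubate 48 h, interpolate endpoints linearly. At the GI50, growth is halved. TGI is the concentration that stops growth completely.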

With `CC(C)(Cl)CCC1=C(Cl)C(=O)c2ccccc2C1=O`, the GI50 was 1500 nM and the TGI came to 3.49 µM.

In the case of `COc1cccc(-c2nn(-c3ccccc3)cc2-c2ccnc(NCCNS(=O)(=O)c3ccc(C(F)(F)F)cc3)c2)c1`, the GI50 was 3310 nM and the TGI was 15.1 µM.

On to `C[C@H](c1ccc(Cl)cc1N)N1C(=O)c2cc(I)ccc2N(CCCN2CCN(C)CC2)C(=O)[C@@H]1c1ccc(Cl)cc1`, for which the GI50 is 1570 nM and the TGI was found to be 3.14 µM.

In the case of `COc1cc2[nH]c(C(=O)c3cc(OC)c(OC)c(OC)c3)c(N)c2cc1C#CCO`, the GI50 is 183 nM and the TGI is greater than 100 µM.

As for `C#C[C@@]1(O)[C@@H](CO)O[C@@H](n2cc(Cl)c3c(N)ncnc32)[C@@H]1O`, the GI50 is 180 nM and the TGI stood at 0.451 µM.

For `O=C1C2CC3C(CC2C(=O)[N]1[Sn]([c]1ccccc1)([c]1ccccc1)[c]1ccccc1)C1(Cl)C(Cl)=C(Cl)C3(Cl)C1(Cl)Cl` (stereo unspecified), the GI50 is 120 nM and the TGI came to 0.28 µM.

With `COc1ccc(OC)c(/C=C/c2nnc(Nc3ccc(Cl)cc3)o2)c1`, the GI50 is 16400 nM and the TGI is greater than 100 µM.

As for `C/C(=C\c1ccn(-c2ccc(N)c(C(F)(F)F)c2)n1)[C@@H]1C[C@@H]2O[C@]2(C)CCC[C@H](C)[C@H](O)[C@@H](C)C(=O)C(C)(C)[C@@H](O)CC(=O)O1`, the GI50 is 10.6 nM and the TGI was determined as 14.2 µM.

Consider `O=c1oc2ccc(Cl)cc2c(=O)n1-c1ccc(Cl)cc1F`, for which the GI50 was 382 nM and the TGI came out at 1.87 µM.

Regarding `Nc1ncc(-c2cnn(C3CCNCC3)c2)cc1-c1nc2ccccc2o1`, the GI50 was 367 nM and the TGI turned out to be 2.33 µM.

`O=S(=O)(NCCNc1cc(-c2cn(-c3ccccc3)nc2-c2cccc(O)c2)ccn1)c1ccc(C(F)(F)F)cc1`: the GI50 was 2050 nM and the TGI was found to be 5.02 µM.

As to `Cc1ccc(-c2csc(N(C(=O)N3CCN(c4cc5c(cc4F)c(=O)c(C(=O)O)cn5C4CC4)CC3)c3ccccc3)n2)cc1`, the GI50 was 366 nM and the TGI is greater than 100 µM.

Consider `CN1CCN(C(=O)c2ccc(NC(=O)Nc3ccc(N(C)c4ccnc(Nc5ccc(CS(C)(=O)=O)cc5)n4)cc3)cc2)CC1`, for which the GI50 is 4720 nM and the TGI was greater than 25 µM.

With `CS(=O)(=O)CCNCc1ccc(-c2ccc3ncnc(Nc4ccc(OCc5ccccc5)c(C(F)(F)F)c4)c3c2)o1`, the GI50 is 1860 nM and the TGI came out at 6.4 µM.

Take `CCCCCCN(CCCCCC)C(=N)c1ccnc2ccccc12`: the GI50 was 3130 nM and the TGI was found to be 11.1 µM.

With `CCCCCCCCCCCCCOC(=O)c1c(C)[nH]c(/C=C2\N=C(c3ccc[nH]3)C=C2OC)c1C`, the GI50 was 385 nM and the TGI turned out to be 44.1 µM.

Take `Nc1ccccc1NC(=O)c1ccc(CSc2nc(N3CCOCC3)c3cccn3n2)cc1`: the GI50 was 1720 nM and the TGI is 6.47 µM.

For `CC(C)(C)c1cc(NC(=O)Nc2ccc(-c3cn4c5c(sc4n3)CCc3cn(CCCN4CCCCC4)cc3-5)cc2)no1`, the GI50 was 1840 nM and the TGI was 3.72 µM.

For `CCOC(=O)[C@H](CSSc1ncnc2cc[nH]c12)NC(=O)[C@@H](C)c1ccc2cc(OC)ccc2c1`, the GI50 is 179 nM and the TGI was determined as 91.7 µM.

With `CCN1C(=O)N(CC)C2C1NN=c1s/c(=C3\C(=O)N(CCC(C)C)c4ccccc43)c(=O)n12` (stereo unspecified), the GI50 is 283 nM and the TGI worked out at 0.72 µM.

Take `CS(=O)(=O)c1ccc(N/N=C/c2c(-c3ccc(S(C)(=O)=O)cc3)[nH]c3ccc(F)cc23)cc1`: the GI50 is 3490 nM and the TGI is greater than 50 µM.

Regarding `Brc1cccc(/C=N/Nc2nc(N/N=C/c3cccc(Br)c3)nc(N3CCOCC3)n2)c1`, the GI50 is 1910 nM and the TGI was 6.09 µM.

For `CN(C)CC/C=C1\c2ccccc2Sc2ccc(Cl)cc21`, the GI50 is 1390 nM and the TGI came to 3.02 µM.

In the case of `CNC(=O)c1ccc(Nc2ncc(C(F)(F)F)c(NCc3nccnc3N(C)S(C)(=O)=O)n2)cc1`, the GI50 is 1590 nM and 2060 nM and 1980 nM; the TGI is 4.99 µM and 5.01 µM and 5.29 µM.

On to `NC1=NC(=O)N2CC12` (stereo unspecified), for which the GI50 was 76800 nM and the TGI amounted to 294 µM.

As to `COc1ccc(C(=S)c2cc(OC)c(OC)c(OC)c2)cc1OC(=O)CCl`, the GI50 was 96.4 nM.

On to `CCC1CCc2nc3sc(C(=O)Nc4ccccc4F)c(N)c3cc2C1` (stereo unspecified), for which the GI50 was 347 nM and the TGI was greater than 100 µM.

Regarding `CCCCCCCCN(CCCCCCCC)C(=N)c1ccnc2ccccc12`, the GI50 is 342 nM and the TGI turned out to be 1.27 µM.

For `O=C1C(=O)c2cc([N+](=O)[O-])ccc2-c2ccccc21`, the GI50 was 1640 nM and the TGI was found to be 3.19 µM.

Take `O=c1ncc(-c2ccc(C(F)(F)F)cc2)c(NC2CCCCCC2)[nH]1`: the GI50 was 21000 nM and the TGI is 51.4 µM.

Take `O=C1C=C(Nc2ccccc2)c2ncccc2C1=O`: the GI50 is 1570 nM and the TGI stood at 3.16 µM.

As for `COc1ccc(C(=O)/C=C/c2cc3ccccc3[nH]c2=O)cc1`, the GI50 is 10500 nM and the TGI came out at 23.1 µM.

For `COc1ccc(-c2coc3ncnc(N)c23)cc1`, the GI50 was greater than 25000 nM and the TGI is greater than 25 µM.

For the molecule `CCN(Cc1ccc(F)cc1)c1ccc(CO)c(Cl)c1`, the GI50 was 14.7 nM and the TGI was found to be 0.0332 µM.

In the case of `COc1cc2c(c(OC)c1OC)-c1ccc([O-])c(=O)cc1[C@@H](NC(C)=O)CC2.COc1cc2c(c(OC)c1OC)-c1ccc([O-])c(=O)cc1[C@@H](NC(C)=O)CC2.[Cu+2]`, the GI50 is 4700 nM and the TGI was found to be 43.2 µM.

As to `COc1cc2c(c(OC)c1OC)-c1ccc(OC)c(=O)cc1[C@@H](NC(=O)CCl)CC2`, the GI50 was less than 10 nM and the TGI was less than 0.01 µM.

For the molecule `Cc1cc(NC(=O)c2ccc(NS(=O)(=O)CCO)cc2N2CCC3(CC2)CC3)nc(N2CCC(F)(F)CC2)n1`, the GI50 was 69.4 nM and the TGI was 2.93 µM.

With `COc1cc(N2CCC(N3CCN(C)CC3)CC2)ccc1Nc1ncc(Cl)c(Nc2ccccc2P(C)(C)=O)n1`, the GI50 was 1680 nM and the TGI was 5.29 µM.

As to `CCc1ccc(C2=C/C(=C/c3ccc(Cl)cc3)C(=O)N2CCc2ccc(S(N)(=O)=O)cc2)cc1`, the GI50 was 1940 nM and the TGI was 5.25 µM.

In the case of `COc1ccc(NC(=O)[C@H](C)NC(=O)OC(C)(C)C)cc1C(=O)Nc1cccc(-c2cc(=O)c3c(OC)c(OC)c(OC)cc3o2)c1`, the GI50 is 2250 nM and the TGI was 6.28 µM.

On to `Nc1nc(N)c2nc(CNc3ccc(C(=O)CC(CCC(=O)O)C(=O)O)cc3)cnc2n1` (stereo unspecified), for which the GI50 is 208 nM and the TGI worked out at 2.34 µM.
